Measurements reported in US20220089609A1, “SUBSTITUTED QUINAZOLINONE DERIVATIVES AND THEIR USE AS POSITIVE ALLOSTERIC MODULATORS OF MGLUR4” (DOMAIN THERAPEUTICS, priority 2018, published 2022).
Structures can show the parent of a compound that is named as a salt.

Each molecule was assayed against T1, human mGluR4 (hmGluR4) (Homo sapiens, UniProt Q14833) (assay: Calcium assay EC50 determination, positive allosteric modulator activity on hmGluR4 transiently over-expressed in HEK-293 cells). Details: PAM mode with EC20 glutamate; hmGluR4 in HEK-293 cells; intracellular calcium (Fluo4AM); read-out: mGluR4 positive allosteric modulator activity, half maximal effective concentration (EC50).
T1 construct: expressed in transfected cells; host or cells: HEK-293 cells, transient co-transfection by electroporation
T1 sequence (Q14833 33-912): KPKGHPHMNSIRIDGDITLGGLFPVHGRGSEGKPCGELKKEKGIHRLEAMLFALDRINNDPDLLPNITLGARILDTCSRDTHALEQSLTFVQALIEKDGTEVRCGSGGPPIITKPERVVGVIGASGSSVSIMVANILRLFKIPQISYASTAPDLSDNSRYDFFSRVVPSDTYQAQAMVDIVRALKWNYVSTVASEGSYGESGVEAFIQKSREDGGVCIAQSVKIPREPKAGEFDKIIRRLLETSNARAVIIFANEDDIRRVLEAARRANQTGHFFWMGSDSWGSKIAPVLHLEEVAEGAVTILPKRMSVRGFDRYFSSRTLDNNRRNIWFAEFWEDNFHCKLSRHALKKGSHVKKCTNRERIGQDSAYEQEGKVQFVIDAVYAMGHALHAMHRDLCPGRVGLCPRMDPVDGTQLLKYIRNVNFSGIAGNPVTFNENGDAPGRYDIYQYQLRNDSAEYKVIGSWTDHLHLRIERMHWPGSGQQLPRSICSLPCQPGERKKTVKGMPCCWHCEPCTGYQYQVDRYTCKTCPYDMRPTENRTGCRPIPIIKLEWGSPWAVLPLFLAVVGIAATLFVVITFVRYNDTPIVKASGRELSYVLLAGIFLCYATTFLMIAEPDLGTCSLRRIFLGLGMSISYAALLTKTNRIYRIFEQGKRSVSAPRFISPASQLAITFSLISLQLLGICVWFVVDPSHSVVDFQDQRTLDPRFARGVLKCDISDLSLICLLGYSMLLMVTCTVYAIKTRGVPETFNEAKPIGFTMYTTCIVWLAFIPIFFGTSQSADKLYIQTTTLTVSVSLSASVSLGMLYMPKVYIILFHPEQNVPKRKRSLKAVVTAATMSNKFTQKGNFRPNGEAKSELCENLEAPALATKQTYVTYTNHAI
Assay type: cell-based
Method: Compounds are tested successively for their agonist and positive allosteric modulator activities on human mGluR4 (hmGluR4) transiently over-expressed in HEK-293 cells. Compounds exert agonist activity if, by themselves in absence of glutamate, they are able to activate hmGluR4; and they exert positive allosteric modulator activity if they increase the action of glutamate.
HEK-293 cells are maintained in Modified Eagle's Medium supplemented with 10% Foetal Calf Serum, 1% Penicillin/Streptomycin and 1% non-essential amino acids at 37° C./5% CO2.
Cells are co-transfected by electroporation with four DNA plasmids encoding hmGluR4, a chimeric G protein allowing redirection of the activation signal to intracellular calcium pathway, and glutamate transporters to decrease extracellular glutamate concentration so as to limit receptor desensitization. After transfection, cells are cultured for 24 h at 37° C./5% CO2.
Calcium Assay EC50 determination
Receptor activity is detected by changes in intracellular calcium measured using the fluorescent Ca^2+ sensitive dye, Fluo4AM (Molecular Probes).
On the day of the assay, culture medium is aspirated and replaced during 3 hours by medium without serum supplemented with 1% Glutamax, 1% Penicillin/Streptomycin and 1% non-essential amino acids. Then, cells are washed with freshly prepared buffer B (HBSS 1× (PAA), Hepes 20 mM, MgSO4-7H2O 1 mM, Na2CO3 3.3 mM, CaCl2-2H2O 1.3 mM, 0.1% BSA, Probenecid 2.5 mM) and loaded at 37° C. in 5% CO2 for 1.5 hours with buffer B containing 1 μM Fluo4AM, 0.1 mg/mL Pluronic Acid, 7 μg/mL Glutamate Pyruvate Transaminase and 2 mM sodium pyruvate. Afterwards cells are washed twice with buffer B. Then cells are detached using StemPro Accutase (Fisher Scientific), resuspended in buffer B and seeded in 384 well plate at a density of 30,000 cells per well. Addition of compounds and intracellular Ca^2+ measurements (excitation 485 nm, emission 525 nm) are performed by the fluorescence microplate reader FLIP^Tetra (Molecular Devices).
Agonist and positive allosteric modulator activities of compounds are consecutively evaluated on the same cell plate. Agonist activity is first tested during 10 minutes with the addition of compound alone on the cells. Then, cells are stimulated by an EC20 glutamate concentration and fluorescence is recorded for additional 3 minutes. EC20 glutamate concentration is the concentration giving 20% of the maximal glutamate response. Agonist or positive allosteric modulator activity(ies) are evaluated in comparison to basal signals evoked by buffer B or EC20 glutamate alone, respectively.
Work on `Cc1cc(CCN2CCOCC2)cc2c(=O)[nH]c(-c3cc4cccn4cn3)nc12` [Compound 124, 8-Methyl-6-(2-morpholin-4-yl-ethyl)-2-pyrrolo[1,2-c]pyrimidin-3-yl-3H-quinazolin-4-one hydrochloride] yielded an EC50 of no more than 100 nM.
For `Cc1cc(OCCCc2ccncc2)cc2c(=O)[nH]c(-c3cc4ccsc4cn3)nc12` [Compound 65, 8-Methyl-6-(3-pyridin-4-yl-propoxy)-2-thieno[2,3-c]pyridin-5-yl-3H-quinazolin-4-one hydrochloride], the EC50 was no more than 100 nM.
For `Cc1cc(OCC2CCN(C3COC3)CC2)cc2c(=O)[nH]c(-c3cc4ccsc4cn3)nc12` [Compound 86, 8-Methyl-6-(1-oxetan-3-yl-piperidin-4-ylmethoxy)-2-thieno[2,3-c]pyridin-5-yl-3H-quinazolin-4-one], the EC50 was no more than 100 nM.
`O=c1[nH]c(-c2cc3ccsc3cn2)nc2c(C3CC3)cc(OCCCc3ccncc3)cc12` [Compound 73, 8-Cyclopropyl-6-(3-pyridin-4-yl-propoxy)-2-thieno[2,3-c]pyridin-5-yl-3H-quinazolin-4-one hydrochloride] was tested, and the EC50 was 100 to 1000 nM.
With `O=c1[nH]c(-c2cc(C(F)(F)F)ccn2)nc2cnc(OCCCc3ccncc3)cc12` [Compound 69, 6-(3-Pyridin-4-yl-propoxy)-2-(4-trifluoromethyl-pyridin-2-yl)-3H-pyrido[3,4-d]pyrimidin-4-one hydrochloride] the EC50 was 100 to 1000 nM.
With `O=c1[nH]c(-c2cc3ccsc3cn2)nc2ccc(OCCCc3ccncc3)nc12` [Compound 66, 6-(3-Pyridin-4-yl-propoxy)-2-thieno[2,3-c]pyridin-5-yl-3H-pyrido[3,2-d]pyrimidin-4-one hydrochloride] the EC50 was 100 to 1000 nM.
`Cc1cc(N2CCC3(CCOCC3)CC2)cc2c(=O)[nH]c(-c3cc(C(F)(F)F)ccn3)nc12` [Compound 105, 8-Methyl-6-(3-oxa-9-aza-spiro[5.5]undec-9-yl)-2-(4-trifluoromethyl-pyridin-2-yl)-3H-quinazolin-4-one] showed an EC50 of no more than 100 nM.
`CC(=O)N1CCC(Oc2ccc3nc(-c4cc5ccsc5cn4)[nH]c(=O)c3c2)C1` (stereo not drawn) [Compound 51, 6-(1-Acetyl-pyrrolidin-3-yloxy)-2-thieno[2,3-c]pyridin-5-yl-3H-quinazolin-4-one] showed an EC50 of 100 to 1000 nM.
Molecule `O=c1[nH]c(-c2cc(C3CC3)ccn2)nc2ccc(OCCCc3ccncc3)cc12` [Compound 19, 2-(4-cyclopropyl-2-pyridyl)-6-[3-(4-pyridyl)propoxy]-3H-quinazolin-4-one dihydrochioride] has an EC50 of 100 to 1000 nM.
For `Cc1cc(CCN2CCOCC2)cc2c(=O)[nH]c(-c3cc(C(F)(F)F)ccn3)nc12` [Compound 117, 8-methyl-6-(2-morpholinoethyl)-2-[4-(trifluoromethyl)-2-pyridyl]-3H-quinazolin-4-one hydrochloride], the EC50 was no more than 100 nM.
For `O=c1[nH]c(-c2cc3ccsc3cn2)nc2c(F)cc(OCCCc3ccncc3)cc12` [Compound 75, 8-Fluoro-6-(3-pyridin-4-yl-propoxy)-2-thieno[2,3-c]pyridin-5-yl-3H-quinazolin-4-one], the EC50 was 100 to 1000 nM.
`CC(=O)N1CCCC(CCOc2cc(C)c3nc(-c4cc5ccsc5cn4)[nH]c(=O)c3c2)C1` (stereo not drawn) [Compound 96, 6-[2-(1-Acetyl-piperidin-3-yl)-ethoxy]-8-methyl-2-thieno[2,3-c]pyridin-5-yl-3H-quinazolin-4-one] gave an EC50 of no more than 100 nM.
Molecule `Cc1cc(O[C@@H]2CCN(C3COC3)C2)cc2c(=O)[nH]c(-c3cc4ccsc4cn3)nc12` [Compound 83-R, R-8-Methyl-6-(1-oxetan-3-yl-pyrrolidin-3-yloxy)-2-thieno[2,3-c]pyridin-5-yl-3H-quinazolin-4-one] has an EC50 of 100 to 1000 nM.
With `CC(=O)N1CCC(c2ccc3nc(-c4cc5ccsc5cn4)[nH]c(=O)c3c2)CC1` [Compound 57, 6-(1-acetyl-piperidin-4-yl)-2-thieno[2,3-c]pyridin-5-yl-3H-quinazolin-4-one] the EC50 was 100 to 1000 nM.
`Cc1cc(O[C@H](C)C2CCOCC2)cc2c(=O)[nH]c(-c3cc4ccsc4cn3)nc12` [Compound 110-R, R-8-Methyl-6-[1-(tetrahydro-pyran-4-yl)-ethoxy]-2-thieno[2,3-c]pyridin-5-yl-3H-quinazolin-4-one] was tested, and the EC50 was no more than 100 nM.
With `O=c1[nH]c(-c2cc(Br)ccn2)nc2ccc(OCCCc3ccncc3)cc12` [Compound 18, 2-(4-bromo-2-pyridyl)-6-[3-(4-pyridyl)propoxy]-3H-quinazolin-4-one] the EC50 was 100 to 1000 nM.
Work on `CCc1cc(OCCCc2ccncc2)cc2c(=O)[nH]c(-c3cc4ccsc4cn3)nc12` [Compound 74, 8-Ethyl-6-(3-pyridin-4-yl-propoxy)-2-thieno[2,3-c]pyridin-5-yl-3H-quinazolin-4-one hydrochloride] yielded an EC50 of 100 to 1000 nM.
`CCC(=O)N1CC(Oc2cc(C)c3nc(-c4cc(C(F)(F)F)ccn4)[nH]c(=O)c3c2)C1` [Compound 103, 8-Methyl-6-(1-propionyl-azetidin-3-yloxy)-2-(4-trifluoromethyl-pyridin-2-yl)-3H-quinazolin-4-one] gave an EC50 of 100 to 1000 nM.
In the case of `Cc1cc(OCC2CCN(S(C)(=O)=O)CC2)cc2c(=O)[nH]c(-c3cc4ccsc4cn3)nc12` [Compound 88, 6-(1-Methanesulfonyl-piperidin-4-ylmethoxy)-8-methyl-2-thieno[2,3-c]pyridin-5-yl-3H-quinazolin-4-one], the EC50 is reported as no more than 100 nM.
In the case of `CCC(=O)N1CC[C@H](Oc2cc(C)c3nc(-c4cc5ccsc5cn4)[nH]c(=O)c3c2)C1` [Compound 82-S, S-8-Methyl-6-(1-propionyl-pyrrolidin-3-yloxy)-2-thieno[2,3-c]pyridin-5-yl-3H-quinazolin-4-one], the EC50 is reported as no more than 100 nM.
`CCC(=O)N1CC[C@H](Oc2cc(C)c3nc(-c4cc5ccsc5cn4)[nH]c(=O)c3c2)C1` (stereo in doubt) [Compound 82-R, R-8-Methyl-6-(1-propionyl-pyrrolidin-3-yloxy)-2-thieno[2,3-c]pyridin-5-yl-3H-quinazolin-4-one] gave an EC50 of 100 to 1000 nM.
`Cc1cc(CCCOc2ccc3nc(-c4cc5ccsc5cn4)[nH]c(=O)c3c2)ccn1` [Compound 63, 6-[3-(2-Methyl-pyridin-4-yl)-propoxy]-2-thieno[2,3-c]pyridin-5-yl-3H-quinazolin-4-one hydrochloride] showed an EC50 of 100 to 1000 nM.
In the case of `Cc1cc(N2CCC3(CCOCC3)C2)cc2c(=O)[nH]c(-c3cc4ccsc4cn3)nc12` [Compound 93, 8-Methyl-6-(8-oxa-2-aza-spiro[4.5]dec-2-yl)-2-thieno[2,3-c]pyridin-5-yl-3H-quinazolin-4-one], the EC50 is reported as no more than 100 nM.
Molecule `Cc1cc(CN2CCC(C(=O)N(C)C)CC2)cc2c(=O)[nH]c(-c3cc4sccc4cn3)nc12` [Compound 156, N,N-Dimethyl-14(8-methyl-4-oxo-2-(thieno[3,2-c]pyridin-6-yl)-3,4-dihydroquinazolin-6-yl)methyl)piperidine-4-carboxamide hydrochloride] has an EC50 of no more than 100 nM.
Work on `Cc1cc(OC[C@@H]2CCOC2)cc2c(=O)[nH]c(-c3cc4ccsc4cn3)nc12` [Compound 80-R, R-8-Methyl-6-(tetrahydro-furan-3-ylmethoxy)-2-thieno[2,3-c]pyridin-5-yl-3H-quinazolin-4-one] yielded an EC50 of no more than 100 nM.
In the case of `Cc1cc(N2CCC3(CCOCC3)CC2)cc2c(=O)[nH]c(-c3cc4cccn4cn3)nc12` [Compound 108, 8-methyl-6-(3-oxa-9-aza-spiro[5.5]undec-9-yl)-2-pyrrolo[1,2-c]pyrimidin-3-yl-3H-quinazolin-4-one], the EC50 is reported as no more than 100 nM.
For `Cc1nc(-c2nc3ccc(OCCCc4ccncc4)cc3c(=O)[nH]2)co1` [Compound 22, 2-(2-Methyl-oxazol-4-yl)-6-(3-pyridin-4-yl-propoxy)-3H-quinazolin-4-one hydrochloride], the EC50 was 1000 to 10000 nM.
`Cc1cc(OCC2CCOCC2)cc2c(=O)[nH]c(-c3cc4ccsc4cn3)nc12` [Compound 76, 8-Methyl-6-(tetrahydro-pyran-4-ylmethoxy)-2-thieno[2,3-c]pyridin-5-yl-3H-quinazolin-4-one] gave an EC50 of no more than 100 nM.
For `Cc1cc(C(=O)N2CCOCC2)cc2c(=O)[nH]c(-c3cc4cccn4cn3)nc12` [Compound 135, 8-Methyl-6-(morpholine-4-carbonyl)-2-pyrrolo[1,2-c]pyrimidin-3-yl-3H-quinazolin-4-one], the EC50 was 100 to 1000 nM.
For `Cc1cc(OCCC2CCOC2)cc2c(=O)[nH]c(-c3cc4ccsc4cn3)nc12` (stereo not drawn) [Compound 78, 8-Methyl-6-[2-(tetrahydro-furan-3-yl)-ethoxy]-2-thieno[2,3-c]pyridin-5-yl-3H-quinazolin-4-one], the EC50 was no more than 100 nM.
